Source: patent publication US20110217713A1 (On-Q-ity, priority 2010, published 2011)

Test system: non-small cell lung cancer patient specimens (adenocarcinomas and squamous cell carcinoma)
Assay: International Adjuvant Lung Trial (IALT): cisplatin-based therapy vs observation, DFS/OS against IHC DNA repair biomarker Q-scores (Cox PH models)
Type: in vivo, human
Procedure: An immunohistochemical evaluation of DNA Repair Proteins was conducted on a large international patient specimen collection from the IALT trial (International Adjuvant Lung Trial). This clinical trial originally comprised approximately 1867 non-small cell lung cancer patient specimens (adenocarcinomas and squamous cell carcinoma) and was designed to test clinical parameters for patients receiving either cisplatin-based therapy or those considered observation. One problem with testing of biomarkers in general from clinical trials is that the patient population treatments are generally a mixture of several different treatments and combinations of such and so results may be confounded by interactions of various treatments. However, the IALT trial represents pristine treatment arms of cisplatin and observation and thus is relatively free of confounding affects due to treatment variation.
International Adjuvant Lung Cancer Trial (IALT) NSCLC FFPE patient specimens constructed on TMAs (13 total) were stained by IHC for DNA repair biomarkers: ATM, MSH2, ERCC1, p53, pMK2, PARP1, BRCA1, XPF. An average of 603 patients were analyzed for each biomarker. Tumor biomarker nuclear or cytoplasmic levels were determined using digital image user defined macros. Scores were generated based on weighted intensity and quantity of stained cells. In reference to accompanying diagrams in the Powerpoint files, please note that a wide dynamic range achieved during assay development and optimization in commercially available TMAs is translationally achieved when patients comprising this study population are stained, annotated for tumor region and scored by user-defined macros.
Previous studies have utilized standard pathologist-based scoring, thus we chose to optimize the IHC-based assessment of biomarker levels using digital pathology and weighted scoring. This endeavor is undertaken so that for a given population a continuum of scores (herein referred to as Q-scores) with a broad dynamic range may be generated by user defined macros. Here, scoring of individual tumor cells comprising each patient specimen is generated and then patients assembled into a population continuum of scores against which finer cut-points may tested and established rather than crude binning methods as employed in previous studies.
Q-score=10*(% of 10+cells)+9*(% of 9+cells)+8*(% of 8+cells)+7*(% of 7+cells) . . . 1*(% of 1+cells)
Cox PH models adjusted for relevant clinical and stratification variables were used in the univariate analyses of Disease-Free Survival (DFS) and Overall Survival (OS). Initial analyses were conducted using biomarker Q scores as continuous variables against clinical endpoint metrics.

[1] = ERCC1 model, ADENOCARCINOMA, Without variables
[2] = ERCC1 model, SQUAMOUS CELLS, With adjustment variables
[3] = ERCC1 model, SQUAMOUS CELLS, With selected variables
[4] = ERCC1 model, SQUAMOUS CELLS, Without variables
[5] = Mean Q score PMK2 nuclear (PMK2MN), Adenocarcinoma, with adjustment variables
[6] = Mean Q score PMK2 nuclear (PMK2MN), Adenocarcinoma, with selected variables
[7] = Mean Q score PMK2 nuclear (PMK2MN), Adenocarcinoma, without variables
[8] = Mean Q score PMK2 nuclear (PMK2MN), Squamous Cells, with adjustment variables
[9] = Mean Q score PMK2 nuclear (PMK2MN), Squamous Cells, with selected variables
[10] = Mean Q score PMK2 nuclear (PMK2MN), Squamous Cells, without variables
[11] = Mean Q score of PMK2 cytoplasm divided by nuclear (PMK2MCNp), Adenocarcinoma, with adjustment variables
[12] = Mean Q score of PMK2 cytoplasm divided by nuclear (PMK2MCNp), Adenocarcinoma, with selected variables
[13] = Mean Q score of PMK2 cytoplasm divided by nuclear (PMK2MCNp), Adenocarcinoma, without variables
[14] = Mean Q score sum of PMK2 cytoplasm & nuclear (PMK2MCNs), Adenocarcinoma, with adjustment variables
[15] = Mean Q score sum of PMK2 cytoplasm & nuclear (PMK2MCNs), Adenocarcinoma, with selected variables
[16] = Mean Q score sum of PMK2 cytoplasm & nuclear (PMK2MCNs), Adenocarcinoma, without variables
[17] = Mean Q score sum of PMK2 cytoplasm & nuclear (PMK2MCNs), Squamous Cells, with adjustment variables
[18] = Mean Q score sum of PMK2 cytoplasm & nuclear (PMK2MCNs), Squamous Cells, with selected variables
[19] = Mean Q score sum of PMK2 cytoplasm & nuclear (PMK2MCNs), Squamous Cells, without variables
[20] = Overall Survival, MEAN Q SCORE PMK2 CYTOPLASM, Adenocarcinoma, With adjustment variables
[21] = Overall Survival, MEAN Q SCORE PMK2 CYTOPLASM, Adenocarcinoma, With selected variables
[22] = Overall Survival, MEAN Q SCORE PMK2 CYTOPLASM, Adenocarcinoma, Without variables
[23] = Overall Survival, MEAN Q SCORE PMK2 CYTOPLASM, Squamous Cells, With selected variables
[24] = Overall Survival, MEAN Q SCORE PMK2 CYTOPLASM, Squamous Cells, Without variables
[25] = PARP1 model, SQUAMOUS CELLS, With adjustment variables
[26] = PARP1 model, SQUAMOUS CELLS, With selected variables
[27] = PARP1 model, SQUAMOUS CELLS, Without variables
[28] = XPF model, ADENOCARCINOMA, With adjustment variables
[29] = XPF model, ADENOCARCINOMA, With selected variables
[30] = XPF model, ADENOCARCINOMA, Without variables
[31] = XPF model, SQUAMOUS CELLS, With adjustment variables
[32] = XPF model, SQUAMOUS CELLS, With selected variables
[33] = XPF model, SQUAMOUS CELLS, Without variables

## N.N.[Cl][Pt][Cl] [cisplatin]
ERCC1 model, ADENOCARCINOMA, With selected variables
  HazardRatio, Treatment: 0.765
[1]
  HazardRatio, ERCC1_Treatment: 1.024
  HazardRatio, Treatment: 1.040
[2]
  HazardRatio, ERCC1_Treatment: 1.070
  HazardRatio, Treatment: 0.731
[3]
  HazardRatio, ERCC1_Treatment: 1.052
  HazardRatio, Treatment: 0.781
[4]
  HazardRatio, ERCC1_Treatment: 1.054
  HazardRatio, Treatment: 0.773
[5]
  HazardRatio, PMK2MN_Treatment interaction (Disease Free Survival): 1.077
  HazardRatio, Treatment (Disease Free Survival): 0.811
[6]
  HazardRatio, PMK2MN_Treatment interaction (Disease Free Survival): 1.084
  HazardRatio, Treatment (Disease Free Survival): 0.802
[7]
  HazardRatio, PMK2MN_Treatment interaction (Disease Free Survival): 0.956
  HazardRatio, Treatment (Disease Free Survival): 1.146
[8]
  HazardRatio, PMK2MN_Treatment interaction (Disease Free Survival): 1.145
  HazardRatio, Treatment (Disease Free Survival): 0.737
[9]
  HazardRatio, PMK2MN_Treatment interaction (Disease Free Survival): 1.145
  HazardRatio, Treatment (Disease Free Survival): 0.750
[10]
  HazardRatio, PMK2MN_Treatment interaction (Disease Free Survival): 1.111
  HazardRatio, Treatment (Disease Free Survival): 0.780
[11]
  HazardRatio, PMK2MCNp_Treatment interaction (Disease Free Survival): 0.000
  HazardRatio, Treatment (Disease Free Survival): 0.954
[12]
  HazardRatio, PMK2MCNp_Treatment interaction (Disease Free Survival): 0.000
  HazardRatio, Treatment (Disease Free Survival): 0.992
[13]
  HazardRatio, PMK2MCNp_Treatment interaction (Disease Free Survival): 0.000
  HazardRatio, Treatment (Disease Free Survival): 1.177
Mean Q score of PMK2 cytoplasm divided by nuclear (PMK2MCNp), Squamous Cells, with adjustment variables
  HazardRatio, Treatment (Disease Free Survival): 0.612
Mean Q score of PMK2 cytoplasm divided by nuclear (PMK2MCNp), Squamous Cells, with selected variables
  HazardRatio, Treatment (Disease Free Survival): 0.645
Mean Q score of PMK2 cytoplasm divided by nuclear (PMK2MCNp), Squamous Cells, without variables
  HazardRatio, Treatment (Disease Free Survival): 0.726
[14]
  HazardRatio, PMK2MCNs_Treatment interaction (Disease Free Survival): 1.041
  HazardRatio, Treatment (Disease Free Survival): 0.832
[15]
  HazardRatio, PMK2MCNs_Treatment interaction (Disease Free Survival): 1.044
  HazardRatio, Treatment (Disease Free Survival): 0.828
[16]
  HazardRatio, PMK2MCNs_Treatment interaction (Disease Free Survival): 0.939
  HazardRatio, Treatment (Disease Free Survival): 1.203
[17]
  HazardRatio, PMK2MCNs_Treatment interaction (Disease Free Survival): 1.091
  HazardRatio, Treatment (Disease Free Survival): 0.751
[18]
  HazardRatio, PMK2MCNs_Treatment interaction (Disease Free Survival): 1.090
  HazardRatio, Treatment (Disease Free Survival): 0.766
[19]
  HazardRatio, PMK2MCNs_Treatment interaction (Disease Free Survival): 1.066
  HazardRatio, Treatment (Disease Free Survival): 0.798
[20]
  HazardRatio, PMK2MC_Treatrnent: 1.001
  HazardRatio, Treatment: 0.883
[21]
  HazardRatio, PMK2MC_Treatment: 0.972
  HazardRatio, Treatment: 0.891
[22]
  HazardRatio, PMK2MC_Treatment: 0.639
  HazardRatio, Treatment: 1.264
[23]
  HazardRatio, PMK2MC_Treatment: 1.240
  HazardRatio, Treatment: 0.803
[24]
  HazardRatio, PMK2MC_Treatment: 1.147
  HazardRatio, Treatment: 0.835
[25]
  HazardRatio, PARP1_Treatment: 1.082
  HazardRatio, Treatment: 0.621
[26]
  HazardRatio, PARP1_Treatment: 1.062
  HazardRatio, Treatment: 0.687
[27]
  HazardRatio, PARP1_Treatment: 1.107
  HazardRatio, Treatment: 0.572
SCC, univariate Cox PH, biomarker Q score, DFS primary endpoint, OS secondary, p=0.005, 95% CI 1.035-1.212
  predictive HR, p53: 1.120
SCC, univariate Cox PH, biomarker Q score, DFS primary endpoint, OS secondary, p=0.010, 95% CI 1.046-1.405
  predictive HR, ATM: 1.212
SCC, univariate Cox PH, biomarker Q score, DFS primary endpoint, OS secondary, p=0.012, 95% CI 1.044-1.42
  predictive HR, MSH2: 1.218
[28]
  HazardRatio, Treatment: 0.628
  HazardRatio, XPF_Treatment: 1.179
[29]
  HazardRatio, Treatment: 0.689
  HazardRatio, XPF_Treatment: 1.166
[30]
  HazardRatio, Treatment: 0.900
  HazardRatio, XPF_Treatment: 1.080
[31]
  HazardRatio, Treatment: 0.813
  HazardRatio, XPF_Treatment: 1.030
[32]
  HazardRatio, Treatment: 0.820
  HazardRatio, XPF_Treatment: 1.035
[33]
  HazardRatio, Treatment: 0.759
  HazardRatio, XPF_Treatment: 1.063
